{
  "source": "patent US20060040872A1",
  "about": "“Calcium channel inhibitor” (SENMI EKISU CO., LTD, priority 2004, published 2006)",
  "format_in_all_cases": "cell-based",
  "key": {"[1]": {"system": "normal human aortic vessel smooth muscle cells (VSMC)", "experiment": "Influence of VY on Ang II receptor: VSMC growth with Ang II and saralasin (WST-8)", "details": "48 hours, FIG. 17", "procedure": "(§1) As to cells, normal human aortic vessel smooth muscle cells (VSMC; Cyro AOSMC (trade name) manufactured by Sanko Junyaku Co.) were used while, as to VY, valyl-tyrosine which was chemically synthesized was used and a calcium channel inhibiting action by VY was confirmed.\nInfluence of VY on Ang II receptor AT1 existing on the surface of VSMC was investigated. That is, VSMC was pre-incubated in a serum-free medium for 24 hours on a 96-well plate and incubation was conducted for 48 hours after 1 μM of Ang II was added, 10 μM of saralasin which is an Ang II antagonist was added, each 1 μM of Ang II and saralasin were added or each 1 μM of Ang II and saralasin and 1 mM of VY were added. Then 10 μM of WST-8 was added thereto and amount of water-soluble formazan formed by color reaction for 3 hours at 37° C. in a CO2 incubator was determined by absorbance at 450 nm whereby cell growth was measured from the synthesized amount of DNA. The result which was made into a graph is FIG. 17 (effect of VY and saralasin (Ang II antagonist) on Ang II stimulation)."}, "[2]": {"system": "normal human aortic vessel smooth muscle cells (VSMC)", "experiment": "Influence on VSMC growth by Ang II stimulation (WST-8)", "details": "48 hours", "procedure": "as §1\nWhen Ang II (angiotensin II) is added to an incubated liquid of VSMC, cell growth thereof is promoted. It has been known to be due to the fact that Ang II is bonded to an AT1 receptor existing on the surface of VSMC, the bonding signal flows in the cells and, as a result, calcium channel opens and calcium ion flows into the cells. Such a mechanism was utilized to conduct the following experiment.\nVSMC was pre-incubated for 24 hours on a serum-free medium on a 96-well plate and three kinds of samples—a control to which no additive was added, a sample to which only Ang II was added in a concentration of 1 μM (Ang II (+)) and a sample to which Ang II and VY were added in concentrations of 1 μM and 1 mM, respectively (Ang II(+)VY(+))—were incubated for 48 hours. Then 10 μM of WST-8 was added thereto and amount of water-soluble formazan resulted by color reaction at 37° C. for 3 hours in a CO2 incubator was measured from absorbance at 450 nm whereupon cell growth was measured form the synthesized amount of DNA. The result which was made into a graph is FIG. 14 (effect of VY on Ang II stimulation).\nFurther, cell growth when concentration of VY added by the same method was made 0 μM, 1 μM, 10 μM, 100 μM and 1 mM was measured. That is, VSMC was pre-incubated on a serum-free medium for 24 hours on a 96-well plate and six kinds of samples—a control where nothing was added and five samples where Ang II was added in a concentration of 1 μM and VY was further added in concentrations 0 μM, 1 μM, 10 μM, 100 μM and 1 mM—were incubated for 48 hours. Then 10 μM WST-8 was added thereto and amount of water-soluble formazan produced by color reaction at 37° C. for 3 hours in a CO2 incubator was determined from absorbance at 450 nm whereupon cell growth was measured from the synthesized amount of DNA. The result which was made into a graph is FIG. 15 (dependency of VY concentration to VSMC growth by Ang II stimulation).\nVSMC was pre-incubated in a serum-free-medium for 24 hours on a 96-well plate, then 1 μM of captopril which is an ACE inhibitor was added thereto and incubation was conducted for 48 hours. Then 10 μM WST-8 was added thereto and amount of water-soluble formazan produced by color reaction for 3 hours was determined from absorbance at 450 nm whereupon cell growth was measured from synthesized amount of DNA. The result which was made into a graph is FIG. 16 (influence of ACE inhibitor on Ang II stimulation)."}, "[3]": {"system": "normal human aortic vessel smooth muscle cells (VSMC)", "experiment": "Influence on calcium channel agonist (Bay K 8644) stimulation of VSMC growth (WST-8)", "details": "48 hours", "procedure": "Inflow of calcium ion which is downstream of Ang II stimulation showing a cell growth promoting action was investigated. […] Then 10 μM of WST-8 was added thereto and amount of water-soluble formazan produced by color reaction for 3 hours at 37° C. in a CO2 incubator was determined by absorbance at 450 nm whereupon cell growth was measured from the synthesized amount of DNA.\nThen 10 μM of WST-8 was added thereto and amount of water-soluble formazan produced by color reaction for 3 hours at 37° C. in a CO2 incubator was determined by absorbance at 450 nm whereby cell growth was measured from synthesized amount of DNA."}, "[4]": {"system": "normal human aortic vessel smooth muscle cells (VSMC)", "experiment": "Influence of VY on VSMC growth in the presence of 5% FBS (Trypan Blue living cell count)", "details": "VY 0, 50 and 100 μM, 5 v/v % FBS medium, 5 days at 37° C., FIG. 12", "procedure": "as §1\nVSMC (1×10^5 cell/ml) was pre-incubated for 24 hours in a serum-free medium and transferred to a medium containing 5 v/v % of FBS (fetal bovine serum), 1 w/v % of hEGF (human epidermal growth factor) and 1 w/v % of hEGF-β, then VY was added thereto so as to make its concentrations 0, 50 and 100 μM and incubation of the resulting mixtures was conducted for 5 days at 37° C. in a CO2 incubator. This was stained with Trypan Blue and living cells were counted by a blood corpuscle counter. The result which is made into a graph is FIG. 12 (effect of addition of VY in the presence of 5% FBS)."}, "[5]": {"system": "normal human aortic vessel smooth muscle cells (VSMC)", "experiment": "VY toxicity test on VSMC (WST-8)", "details": "0 mM or 1 mM VY; 48 hours; serum-free; WST-8 absorbance at 450 nm; FIG. 13", "procedure": "as §1\nIn order to check the toxicity of VY, VSMC was pre-incubated for 24 hours on a serum-free medium on a 96-well plate, 0 mM or 1 mM of VY was added thereto and incubation was conducted for 48 hours. To this was added a solution containing 10 μM of WST-8 (2-(2-methoxy-4-nitrophenyl)-3-(4-nitrophenyl)-5-(2,4-disulfophenyl)-2H-tetrazolium (Cell Counting Kit-8; manufactured by Dojin Kagaku CO.)), color reaction was conducted in a CO2 incubator at 37° C. for 3 hours and the amount of the resulting water-soluble formazan was determined by absorbance at 450 nm where cell growth was measured from the synthesized amount of DNA. The result which was made into a graph is FIG. 13 (VY toxicity test). As a result, it was noted that there was no difference between their cell growths and that VY is non-toxic."}},
  "note": "Where a SMILES comes first, the peptide text is derived from it.",
  "data": [
    {"compound": "CNCC(=O)N[C@@H](CCCN=C(N)N)C(=O)N[C@H](C(=O)N[C@@H](Cc1ccc(O)cc1)C(=O)N[C@H](C(=O)N[C@@H](Cc1cnc[nH]1)C(=O)N1CCC[C@H]1C(=O)N[C@@H](C)C(=O)O)C(C)C)C(C)C", "note": "[saralasin]", "values": [
      {"measurement": "cell growth", "setting": "[1]; each 1 μM of Ang II and saralasin", "result": "the growth promotion effect was weak as compared with the case of sole use of saralasin"},
      {"measurement": "cell growth", "setting": "[1]; saralasin alone, 10 μM", "result": "cell growth was promoted although that was not so significant as in the case of addition of Ang II"}
    ]},
    {"compound": "angiotensin II (DRVYIHPF; Angiotensin-2; UniProt P01019 25-32, looked up) [Ang II, angiotensin II, promotes VSMC growth via AT1 receptor, reference compound]", "values": [
      {"measurement": "cell growth", "setting": "[2]; Ang II alone 1 μM, FIG. 14", "result": "growth was strongly promoted"}
    ]},
    {"compound": "COC(=O)C1=C(C)NC(C)=C([N+](=O)[O-])C1c1ccccc1C(F)(F)F", "note": "(stereo not shown) [Bay K 8644, reference compound]", "values": [
      {"measurement": "cell growth", "setting": "[3]; Bay K 8644 alone 1 μM, FIG. 18", "result": "cell growth was promoted"}
    ]},
    {"compound": "COc1ccc(CCN(C)CCCC(C#N)(c2ccc(OC)c(OC)c2)C(C)C)cc1OC", "note": "(stereo not shown) [verapamil, reference compound]", "values": [
      {"measurement": "cell growth under Bay K 8644 stimulation", "setting": "[3]; each 1 μM of Bay K 8644 and verapamil, FIG. 18", "result": "suppressed the cell growth promoting activity"}
    ]},
    {"compound": "CC(C)[C@H](N)C(=O)N[C@@H](Cc1ccc(O)cc1)C(=O)O", "note": "[VY, valyl-tyrosine] (H-Val-Tyr-OH)", "values": [
      {"measurement": "cell growth (living cells counted)", "setting": "[4]", "result": "cell growth was suppressed in proportion to the added VY concentration"},
      {"measurement": "toxicity (cell growth)", "setting": "[5]", "result": "non-toxic"},
      {"measurement": "cell growth under Ang II stimulation", "setting": "[2]; Ang II 1 μM and VY 1 mM, FIG. 14", "result": "cell growth was not promoted"},
      {"measurement": "dependency of VY concentration to VSMC growth by Ang II stimulation", "setting": "[2]; Ang II 1 μM, VY 0 μM, 1 μM, 10 μM, 100 μM and 1 mM, FIG. 15", "result": "suppressive effect to the growth of VSMC by Ang II stimulation in a concentration-depending manner"},
      {"measurement": "cell growth", "setting": "[1]; each 1 μM of Ang II and saralasin and 1 mM of VY", "result": "no growth promoting effect was noted"},
      {"measurement": "cell growth under Bay K 8644 stimulation", "setting": "[3]; 1 μM of Bay K 8644 and 1 mM of VY, FIG. 18", "result": "suppressed cell growth promoting activity as same as in the case of addition of verapamil"},
      {"measurement": "dependency on concentration of VY to Bay K 8644 stimulation (cell growth)", "setting": "[3]; 1 μM of Bay K 8644 with 0, 10 μM, 100 μM or 1 mM of VY, FIG. 19", "result": "suppressive effect to VSMC growth by Bay K 8644 stimulation in a concentration-dependent manner"}
    ]},
    {"compound": "C[C@H](CS)C(=O)N1CCC[C@H]1C(=O)O", "note": "[captopril, reference compound]", "values": [
      {"measurement": "influence of ACE inhibitor on Ang II stimulation (cell growth)", "setting": "[2]; captopril 1 μM, FIG. 16", "result": "did not show a suppressive action to Ang II stimulation"}
    ]}
  ]
}
